In assay [1] the target is T1, NOTUM (Homo sapiens, UniProt Q6P988).
T1 sequence (Q6P988 20-496): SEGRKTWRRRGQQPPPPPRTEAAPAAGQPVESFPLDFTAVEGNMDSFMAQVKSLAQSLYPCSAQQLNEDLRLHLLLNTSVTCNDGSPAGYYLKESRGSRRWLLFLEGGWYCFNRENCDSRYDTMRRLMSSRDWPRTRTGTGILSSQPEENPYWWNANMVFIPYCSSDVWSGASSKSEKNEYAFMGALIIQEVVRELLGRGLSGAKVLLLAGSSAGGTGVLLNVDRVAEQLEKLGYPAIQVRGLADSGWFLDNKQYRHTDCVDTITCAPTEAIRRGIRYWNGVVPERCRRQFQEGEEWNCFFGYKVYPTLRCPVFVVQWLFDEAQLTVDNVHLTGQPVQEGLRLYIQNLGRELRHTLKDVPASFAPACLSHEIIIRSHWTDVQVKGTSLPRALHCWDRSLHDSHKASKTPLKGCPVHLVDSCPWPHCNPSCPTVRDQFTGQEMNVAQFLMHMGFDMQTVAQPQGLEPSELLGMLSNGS
Put plainly: Competitive gel-based ABPP. It is filed as biochemical. Conditions: 10 μM, 30 min pretreatment at 37 °C; CM of WT-NOTUM-transfected HEK293T cells.

For the next assay, the target named is T2, PPT1 (Homo sapiens, UniProt P50897).
T2 sequence (P50897 28-306): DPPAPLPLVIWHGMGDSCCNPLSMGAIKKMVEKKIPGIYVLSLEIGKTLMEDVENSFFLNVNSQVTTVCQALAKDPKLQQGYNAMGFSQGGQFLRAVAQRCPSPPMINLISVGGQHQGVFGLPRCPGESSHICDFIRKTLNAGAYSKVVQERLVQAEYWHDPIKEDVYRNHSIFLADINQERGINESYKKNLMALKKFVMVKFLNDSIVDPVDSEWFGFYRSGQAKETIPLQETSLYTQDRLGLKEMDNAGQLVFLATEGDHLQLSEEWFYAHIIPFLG
Type of assay: cell-based. Conditions: SW620 cells in situ 2 h; ABC45 probe 1 µM.

In another assay the test system is serine hydrolases. The assay can be described thus: Competitive gel-based ABPP. Type of assay: cell-based, human. The settings on record: SW620 soluble and membrane proteomes, in situ 2 h, 37 °C, FP-Rh.
Assay [2] concerns the target T1, NOTUM. It is filed as biochemical. The settings on record: SW620 CM; for inhibitory activity for NOTUM: competitive gel-based ABPP.
Assay [3] has as its system FP-biotin-enriched proteins of SW620 conditioned media. The assay can be described thus: Quantitative MS-based ABPP of SW620 CM. Type of assay: biochemical, human. Conditions: 0.5 and 10 μM; both CM and SW620 in situ treated cells.
The target of assay [4] is T1, NOTUM. Put plainly: ABC99yne direct labeling. Conditions: 0.1 μM probe; CM and cellular lysate of SW620 cells; Rh-N3 click.
The next assay addresses T3, ABHD6 (Homo sapiens, UniProt Q9BV23).
T3 sequence (Q9BV23 1-337): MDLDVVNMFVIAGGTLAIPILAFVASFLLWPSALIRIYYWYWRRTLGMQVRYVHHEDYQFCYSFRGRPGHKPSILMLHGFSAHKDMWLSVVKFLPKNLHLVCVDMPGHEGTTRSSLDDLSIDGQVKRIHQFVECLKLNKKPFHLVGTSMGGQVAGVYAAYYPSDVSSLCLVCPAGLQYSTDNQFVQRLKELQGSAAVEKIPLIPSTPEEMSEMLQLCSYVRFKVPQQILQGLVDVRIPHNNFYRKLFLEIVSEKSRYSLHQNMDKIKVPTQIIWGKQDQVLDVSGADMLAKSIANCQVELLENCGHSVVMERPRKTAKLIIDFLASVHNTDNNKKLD
The assay can be described thus: MS-based ABPP, SW620 cells in situ. Type of assay: cell-based. Conditions: 10 µM, Supplementary Figure 3.

The structures appear in SMILES notation.

Here are results for seven molecules from paper PMC6004566 (ACS Medicinal Chemistry Letters, 2018).

With `COc1ccc(N2CCN(C(=O)ON3C(=O)C4CN(Cc5ccc(Br)cc5)CCN4C3=O)CC2)cc1` (stereo not drawn) [ABC28], on NOTUM [1], the “FP-Rh reactivity with NOTUM” value is given as “blocked FP-Rh reactivity with NOTUM”.
Turning to `O=C1C2CN(Cc3ccc(Oc4ccccc4)nc3)CCN2C(=O)N1OC(=O)N1CCOc2ccccc21` (stereo not drawn) [ABC63], at NOTUM [1], the “FP-Rh reactivity with NOTUM” value was “blocked FP-Rh reactivity with NOTUM”. Further, the “PPT1 inhibition” value on PPT1 is reported as “did not inhibit PPT1 at concentrations up to 10 μM”.
Consider `COc1ccc(N2CCN(C(=O)ON3C(=O)C4CN(Cc5ccc(Cl)cc5)CCN4C3=O)CC2)cc1` (stereo not drawn) [ABC90], for which the “selectivity across serine hydrolases” value in the assay on serine hydrolases is reported as “only a single major site of ABC90 cross reactivity was observed; a 35 kDa protein that we suspected was ABHD6”. The “PPT1 inhibition” value at PPT1 is “potent inhibitor of PPT1”.
As for `COc1ccc(N2CCN(C(=O)ON3C(=O)C4CN(Cc5cccc(Cl)c5)CCN4C3=O)CC2)cc1` (stereo not drawn) [ABC91], the “inhibitory activity for NOTUM” value at NOTUM [2] was “completely lost activity”.
Regarding `O=C1C2CN(Cc3ccc(Cl)cc3)CCN2C(=O)N1OC(=O)N1CCOc2ccccc21` (stereo not drawn) [ABC99], the “PPT1 inhibition” value at PPT1 is reported as “did not cross-react”. Also, the “cross-reactivity with the 64 additional serine hydrolases quantified by MS-ABPP” value in assay [3] is “virtually no cross-reactivity”.
In the case of `C#CCN1CCN(C(=O)ON2C(=O)C3CN(Cc4ccc(Cl)cc4)CCN3C2=O)c2ccccc21` (stereo not drawn) [ABC99yne], the “IC50 for blockade of FP-Rh reactivity of NOTUM” value at NOTUM [2] (30 min, 37 °C) is listed as “sub-micromolar”. Moreover, the “direct labeling selectivity” value at NOTUM [4] is recorded as “highly selective labeling of NOTUM with no other cross-reactive proteins observed”.
As for `O=C(c1ccc(Cl)cc1)N1CCN2C(=O)N(OC(=O)N3CCOc4ccccc43)C(=O)C2C1` (stereo not drawn) [ABC101], at ABHD6, the “inhibition of ABHD6” value is “maintained inhibition of ABHD6”. Also, on NOTUM [2], the “inhibitory activity for NOTUM” value was “lost inhibitory activity for NOTUM”.
